Assay results published in PMC5447756, “Identification of Epigallocatechin-3- Gallate as an Inhibitor of Phosphoglycerate Mutase 1” (Frontiers in Pharmacology, 2017).

Legend:
[1] = test system: T1, PGAM1 R10K mutant; assay: Inhibition of PGAM1 R10K mutant; assay type: biochemical, human; conditions: compared to the wild-type PGAM1
T1 construct: His; made in house; host or cells: E. coli BL21
Procedure: (§1) BL21 competent cells were transformed by His-tagged pETDuet-1-PGAM1 (wildtype or mutants) or His-tagged pETDuet-1-PHGDH constructs. Cells were collected, resuspended in buffer A (20 mM Tris, 200 mM NaCl, 20 mM imidazole, pH 8.0) and sonicated on ice until complete lysis. His-tagged PGAM1, PGAM1 mutants or PHGDH recombinant proteins in supernatant were purified using Ni-NTA beads (QIAGEN), washed with buffer A, and eluted with buffer B (20 mM Tris, 200 mM NaCl, 250 mM imidazole, pH 8.0). All obtained proteins were stored at -80°C.
(§2) Recombinant PGAM1 enzymatic activity was measured by a multiple enzymes coupled assay. In brief, assay was conducted in 10 μL buffer (50 mM HEPES, PH 7.5, 10 mM MgCl2) containing 5 μL 1 mg/ml recombinant PGAM1 enzyme, 2.5 μL test compound, 2.5 μL 1 mM ADP, 1 mM 3-PG, 0.5 units/ml enolase (Sigma–Aldrich) and 0.5 units/mL recombinant pyruvate kinase M1 (Sigma–Aldrich). The production of ATP was measured by Kinase-Glo® Max Luminescent Kinase Assay (Promega).
(§3) H186R was a well-validated catalytically dead mutant of PGAM1 ([Zhang et al., 2016]; [Qu et al., 2017]), which was used as a control (Figure 2B).

[2] = test system: T2, PGAM1 R191K mutant; assay: Inhibition of PGAM1 R191K mutant; assay type: biochemical, human; conditions: compared to the wild-type PGAM1
T2 construct: His; made in house; host or cells: E. coli BL21
Procedure: as §1, §2, §3

[3] = test system: NCI-H1299 cells; assay: Intracellular 2-PG measurement; assay type: cell-based, human; conditions: NCI-H1299, 24 h, free compound
Procedure: A 2-Phosphoglycerate Colorimetric/Fluorometric Assay kit (BioVision) was used to measure cellular 2-PG level. Cells were collected after exposure to compounds for 24 h, washed with PBS, and lysed with ice-cold 2-PG assay buffer. […] The samples were measured by using EnVision® at Ex 535 Em 587 nm.

[4] = test system: human xenograft tumors; design: method as in Hitosugi et al., 2012; conditions: mice models carrying human xenograft tumors; ref Hitosugi et al., 2012; cited from earlier work
[5] = test system: T3, PGAM1 R116K mutant; assay: Inhibition of PGAM1 R116K mutant; assay type: biochemical, human; conditions: compared to the wild-type PGAM1
T3 construct: His; made in house; host or cells: E. coli BL21
Procedure: as §1, §2, §3

[6] = test system: NCI-H1299 cells; assay: Cell proliferation assay, NCI-H1299; assay type: cell-based, human
Procedure: Cells were seeded into a 6-well plate. […] The cells were harvested after incubation for 72 h and the proliferation inhibition rate was calculated by cell number counting (Beckman).

[7] = test system: T4, mutant isocitrate dehydrogenase 1 (IDH1 R132H); assay: IDH enzymatic assay; assay type: biochemical; conditions: at a concentration up to 100 μM
T4 construct: purchased Cayman Chemical
Procedure: Assays were conducted in 10 μL buffer [150 mM NaCl, 20 mM Tris pH7.5, 10 mM MgCl2, 0.05% (w/v) bovine serum albumin] containing 2.5 μL of test compound, 5 μL enzyme solution (10 ng/μL mutant IDH, Cayman Chemical) and 2.5 μL substrate solution (1 mM α-KG, 4 μM NADPH) added into a 384-well plate followed by incubation at room temperature for 60 min. After incubation, NADPH remaining amount was measured by adding 5 μL buffer containing 5 μM resazurin and 0.01 unit diaphorase and incubated at room temperature for 10 min. The plate was read using EnVision (Perkin Elmer) at Ex 540 Em 590 nm.

[8] = target: T5, PGAM1 (Homo sapiens, UniProt P18669); assay: PGAM1 coupled enzymatic assay (PKM1/enolase, Kinase-Glo); assay type: biochemical; conditions: recombinant PGAM1, coupled enzyme assay; read-out: IC50, inhibition of PGAM1
T5 construct: His; made in house; host or cells: E. coli BL21
Description: To identify new PGAM1 inhibitors, we utilized a coupled PGAM1 and pyruvate kinase isozymes M1 (PKM1)/enolase biochemical assay followed by a counter screen to exclude compounds with activity toward PKM1 or enolase. […] Using these biochemical assays, we screened a chemical library composed of 800 purified compounds derived from natural products.

[9] = test system: Caco-2 monolayer; assay: Caco-2 monolayer permeability; assay type: in vitro ADME; conditions: result in words
Procedure: The solubility of compounds was measured by Nephelometry using the NEPHELOstar plus apparatus (BMG Lab Technologies). Caco-2 monolayer was cultivated on permeable support. In details, after 21-day culture, the integrity of the cell monolayer of every well was verified by measuring the transepithelial electrical resistance (TEER). The diluted solution was added to corresponding well and the plate was incubated at 37°C for 1.5 h. 100 μL samples were collected from both apical and basolateral sides at the initial and end time points and the sample concentrations were measured for the evaluation of mass balance.

[10] = test system: hexokinase 2 (HK2); design: method as in Gao et al., 2015; conditions: human tongue carcinoma; ref Gao et al., 2015; cited from earlier work
[11] = target: T5, PGAM1; assay: Substrate 3-PG competition, Lineweaver-Burk plot analysis; assay type: biochemical
[12] = target: T5, PGAM1; assay: Surface plasmon resonance binding to PGAM1; conditions: SPR, 25°C, 1:1 Langmuir binding model; read-out: dissociation constant (Kd-value)
Procedure: Surface plasmon resonance (SPR) assay was carried out with a ProteOn XPR36 instrument (Bio-Rad). PGAM1 was coupled to the surface of a GLH sensor chip according to the manufacturer’s instructions. […] Resonance units (RU) changes represent the binding condition. The dissociation constant (Kd) was calculated using the ProteOn Manager 3.1 software program by fitting to a 1:1 Langmuir binding model.

[13] = test system: T6, phosphoglycerate dehydrogenase (PHGDH); assay: PHGDH enzymatic assay; assay type: biochemical; conditions: at a concentration up to 100 μM
T6 construct: His; made in house; host or cells: E. coli BL21
Procedure: Assays were conducted in 10 μL buffer (200 mM Tris-HCl pH8.1, 400 mM KCl, 2 mM GSH, and 10 mM EDTA) containing recombinant PHGDH, 0.6 mM NAD, 1 mM 3-PG. The NADH product can be measured by diaphorase/rezasurin system.

T5 sequence (P18669 whole entry): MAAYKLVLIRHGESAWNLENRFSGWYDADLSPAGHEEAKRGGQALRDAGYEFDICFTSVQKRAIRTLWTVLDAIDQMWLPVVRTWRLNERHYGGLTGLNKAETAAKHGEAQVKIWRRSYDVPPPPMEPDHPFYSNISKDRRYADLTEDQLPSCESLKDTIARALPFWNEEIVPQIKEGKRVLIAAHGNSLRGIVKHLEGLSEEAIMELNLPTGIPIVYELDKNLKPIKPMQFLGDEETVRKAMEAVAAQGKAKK

inhibition of mutant IDH1 [7] | IC50 [8] | membrane permeability [9] | pattern of inhibition with substrate 3-PG [11] | Kd [12] | inhibition of PHGDH [13] | Molecule | inhibitory activity toward R10K mutant [1] | inhibitory activity toward R191K mutant [2] | concentration giving apparent inhibition of intracellular 2-PG level [3] | anticancer properties in xenograft mice [4] | inhibitory activity toward R116K mutant [5] | cell growth ([6]; NCI-H1299, 72 h, cell counting) | effect of stable knockdown of PGAM1 on growth inhibition ([6]; PGAM1 stable knockdown NCI-H1299 (shPGAM1) vs scramble, 72 h) | expression of hexokinase 2 (HK2) [10]
– | – | – | – | – | – | O=C1c2ccccc2C(=O)c2c1cc(S(=O)(=O)Nc1ccc(C(F)(F)F)cc1)c(O)c2O [PGMI-004A, reference compound] | only slightly affect the activity | only slightly affect the activity | 20 µM | exhibited evident anticancer properties | only slightly affect the activity | – | – | –
did not inhibit | 490 ± 170 nM | extremely low membrane permeability | non-competitive | 780 nM | did not inhibit | (-)-Epigallocatechin-3-gallate [EGCG] | lost its inhibitory activity | lost its inhibitory activity | 80 µM | – | lost its inhibitory activity | dose-dependently inhibited cell growth | partially rescued | inhibits the expression
